Assay results from ChEMBL document CHEMBL1201862, “PubChem BioAssay data set” (2004).
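Protocol summary: plate cells (96-well), add compound at 5 concentrations, incubate 48 h, interpolate endpoints linearly. At the GI50, growth is halved.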 The source made the active and inactive calls. Cut-off read from the data, not from the text of the source: active = GI50 up to about 1.1 µM and inactive = higher.

Key:
Assay in all cases: inhibition of tumour cell growth, NCI panel, 48 h
LXFL 529 = test system: LXFL 529
DMS-114 = test system: DMS-114
DMS-273 = test system: DMS-273
DLD-1 = test system: DLD-1
M19-MEL = test system: M19-MEL
XF498 = test system: XF498
HOP-18 = test system: HOP-18
SNB-78 = test system: SNB-78
RXF 631 = test system: RXF 631

Row | SMILES | GI50 (LXFL 529) | GI50 (DMS-114) | GI50 (DMS-273) | GI50 (DLD-1) | GI50 (M19-MEL) | GI50 (XF498) | GI50 (HOP-18) | GI50 (SNB-78) | GI50 (RXF 631)
1 | CN[C@@H]1C[C@H]2O[C@@](C)([C@@H]1OC)n1c3ccccc3c3c4c(c5c6ccccc6n2c5c31)C(=O)N[C@@H]4O | 0.119 µM (active) | 0.104 µM (active) | 0.0352 µM (active) | 0.149 µM (active) | 0.135 µM (active) | 0.0356 µM (active) | 0.01 µM (active) | 0.0344 µM (active) | –
2 | c1cnc2c3[nH]cc4[nH]c5ccccc5c4c-3nc2c1 | 68.1 µM (inactive) | > 100 µM (inactive) | 72.9 µM (inactive) | 37.8 µM (inactive) | > 100 µM (inactive) | > 100 µM (inactive) | – | > 100 µM (inactive) | –
3 | Cc1[nH]c2ccccc2c1/C=C/c1c(C)[nH]c2ccccc12 | > 100 µM (inactive) | > 100 µM (inactive) | > 100 µM (inactive) | > 100 µM (inactive) | > 100 µM (inactive) | > 100 µM (inactive) | – | > 100 µM (inactive) | –
4 | Cc1cc(Cl)ccc1NC(=O)C(=O)Cc1nc2ccccc2o1 | > 100 µM (inactive) | > 100 µM (inactive) | > 100 µM (inactive) | > 100 µM (inactive) | > 100 µM (inactive) | > 100 µM (inactive) | > 100 µM (inactive) | > 100 µM (inactive) | > 100 µM (inactive)
5 | Cc1cc(Cl)ccc1C1OC(=O)c2c1ccc1ccccc21 (stereo not drawn) | 74.1 µM (inactive) | – | > 100 µM (inactive) | > 100 µM (inactive) | > 100 µM (inactive) | > 100 µM (inactive) | – | – | –
6 | Fc1cccc(C2SCc3nc4ccccc4n32)c1 (stereo not drawn) | 25.2 µM (inactive) | 26.3 µM (inactive) | 26.6 µM (inactive) | 43.8 µM (inactive) | 51.4 µM (inactive) | – | – | 30.6 µM (inactive) | 32.7 µM (inactive)
7 | CCCCC(=O)OC[n+]1ccc2c(C)c3[nH]c4ccc(OC)cc4c3c(C)c2c1 | 0.619 µM (active) | 0.705 µM (active) | 0.103 µM (active) | 0.32 µM (active) | 0.684 µM (active) | – | – | 1.18 µM (inactive) | 0.345 µM (active)
8 | Cc1ccc(S(=O)(=O)N/N=C/C(C)C)cc1 | > 100 µM (inactive) | > 100 µM (inactive) | > 100 µM (inactive) | > 100 µM (inactive) | > 100 µM (inactive) | – | > 100 µM (inactive) | > 100 µM (inactive) | > 100 µM (inactive)
9 | CN1NC(c2ccccc2)=C(C#N)C(=O)CC1c1ccccc1Cl (stereo not drawn) | > 100 µM (inactive) | > 100 µM (inactive) | > 100 µM (inactive) | 61.4 µM (inactive) | – | > 100 µM (inactive) | 67.3 µM (inactive) | > 100 µM (inactive) | > 100 µM (inactive)
10 | Nc1nc(S)nc(C(=O)Nc2nccs2)c1-c1ccccc1 | > 100 µM (inactive) | > 100 µM (inactive) | > 100 µM (inactive) | > 100 µM (inactive) | > 100 µM (inactive) | > 100 µM (inactive) | > 100 µM (inactive) | > 100 µM (inactive) | –
11 | O=Cc1ccc2c(c1I)OCO2 | – | – | > 100 µM (inactive) | > 100 µM (inactive) | > 100 µM (inactive) | – | > 100 µM (inactive) | > 100 µM (inactive) | –
12 | O=[N+]([O-])c1ccc(-c2noc(-c3ccc(Cl)cc3)c2C2=NCCN2)cc1 | > 100 µM (inactive) | – | – | > 100 µM (inactive) | > 100 µM (inactive) | > 100 µM (inactive) | 94.2 µM (inactive) | > 100 µM (inactive) | –
13 | C=CC(=O)c1ccc2c(c1)OCCOCCOCCOCCOCCO2 | 16.9 µM (inactive) | 19.3 µM (inactive) | 15.7 µM (inactive) | 16.4 µM (inactive) | 17.8 µM (inactive) | 15.3 µM (inactive) | 16.1 µM (inactive) | 17.7 µM (inactive) | –
14 | N#C/C(=C1\OC(=O)C(c2ccc(Br)cc2)=C1O)c1ccc(Br)cc1 | 10.2 µM (inactive) | 12.8 µM (inactive) | 21.3 µM (inactive) | 15.8 µM (inactive) | 14.6 µM (inactive) | 12.9 µM (inactive) | 13.5 µM (inactive) | 12.3 µM (inactive) | 15.4 µM (inactive)
15 | O=C1c2ccccc2C(=O)N1C/C=N/NS(=O)(=O)c1ccc(Br)cc1 | > 100 µM (inactive) | 51.6 µM (inactive) | > 100 µM (inactive) | > 100 µM (inactive) | > 100 µM (inactive) | > 100 µM (inactive) | > 100 µM (inactive) | > 100 µM (inactive) | > 100 µM (inactive)
16 | C=CSCCC(N)C(=O)O (stereo not drawn) | > 100 µM (inactive) | > 100 µM (inactive) | > 100 µM (inactive) | > 100 µM (inactive) | > 100 µM (inactive) | > 100 µM (inactive) | > 100 µM (inactive) | > 100 µM (inactive) | > 100 µM (inactive)
17 | CC(=O)Nc1ccc(S(=O)(=O)N/N=C/c2cc(I)cc([N+](=O)[O-])c2O)cc1 | – | 50.8 µM (inactive) | 62.4 µM (inactive) | > 100 µM (inactive) | 66.4 µM (inactive) | 24.1 µM (inactive) | 27.7 µM (inactive) | 37 µM (inactive) | > 100 µM (inactive)
18 | Cc1c(NC(=O)C(C)(C)Br)c(=O)oc2c(C)c3occc(=O)c3cc12 | 42.9 µM (inactive) | 44.1 µM (inactive) | 77.3 µM (inactive) | 59 µM (inactive) | – | 27.3 µM (inactive) | – | – | 48.1 µM (inactive)
19 | Nc1c(-c2cn(Cc3ccccc3)c3ccccc23)[n+]([O-])c2ccccc2[n+]1[O-] | 23.9 µM (inactive) | 16.7 µM (inactive) | 23.8 µM (inactive) | 32.7 µM (inactive) | 38.9 µM (inactive) | 12.6 µM (inactive) | – | 53.8 µM (inactive) | –
20 | CC(=O)OC1CCn2nnc(CO)c21 (stereo not drawn) | > 100 µM (inactive) | > 100 µM (inactive) | > 100 µM (inactive) | > 100 µM (inactive) | > 100 µM (inactive) | > 100 µM (inactive) | > 100 µM (inactive) | > 100 µM (inactive) | –
21 | Cc1cccc(-c2nc3c(C(=O)NCCN(C)C)cccc3[nH]2)c1 | – | 1.24 µM (inactive) | 0.411 µM (active) | 0.407 µM (active) | 1.67 µM (inactive) | – | 0.605 µM (active) | 3.49 µM (inactive) | 0.394 µM (active)
22 | O=c1[nH]c(=O)n(C2OC(CO)C(N(O)Cc3ccc(F)cc3)C2O)cc1Br (stereo not drawn) | > 100 µM (inactive) | > 100 µM (inactive) | > 100 µM (inactive) | > 100 µM (inactive) | > 100 µM (inactive) | – | – | > 100 µM (inactive) | –
23 | O=C(Nc1nnc(S)[nH]1)C(=O)C(C(=O)c1ccc2ccccc2c1)C1OC(=O)c2ccccc21 (stereo not drawn) | 12.1 µM (inactive) | 12.2 µM (inactive) | 25.5 µM (inactive) | 19.5 µM (inactive) | 13.8 µM (inactive) | 2.09 µM (inactive) | 0.305 µM (active) | 29.8 µM (inactive) | 21.8 µM (inactive)
24 | c1ccc(P(=C2c3ccccc3-c3ccccc32)(c2ccccc2)c2ccccc2)cc1 | 3.85 µM (inactive) | 2.79 µM (inactive) | 5.04 µM (inactive) | 4.32 µM (inactive) | 4.94 µM (inactive) | – | 4.47 µM (inactive) | – | 5.64 µM (inactive)
25 | O=C1/C(=N\O)C2CCC1C2 (stereo not drawn) | > 100 µM (inactive) | > 100 µM (inactive) | > 100 µM (inactive) | – | > 100 µM (inactive) | – | > 100 µM (inactive) | > 100 µM (inactive) | –
26 | CC1=CC(=O)C(=O)C2=C1OC1(C2)C(C)CCC2C3(C)CCC(O)C(C)(C)C3CCC21C (stereo not drawn) | 15.5 µM (inactive) | 14.9 µM (inactive) | 24.9 µM (inactive) | 20.1 µM (inactive) | 18.4 µM (inactive) | 18.2 µM (inactive) | – | 22.4 µM (inactive) | –
27 | CCOC(=O)C(C)Sc1nnc(COc2ccc(Cl)cc2)n1-c1ccccc1 (stereo not drawn) | 16.4 µM (inactive) | – | 16.4 µM (inactive) | 19.8 µM (inactive) | 19.1 µM (inactive) | – | 49 µM (inactive) | 26.1 µM (inactive) | –
28 | CCOC(=O)Cn1c(=O)[nH]c(=O)c2[nH]cnc21 | > 100 µM (inactive) | > 100 µM (inactive) | > 100 µM (inactive) | > 100 µM (inactive) | > 100 µM (inactive) | – | > 100 µM (inactive) | > 100 µM (inactive) | > 100 µM (inactive)
29 | CS(=O)(=O)OCCCOS(C)(=O)=O | > 100 µM (inactive) | > 100 µM (inactive) | > 100 µM (inactive) | > 100 µM (inactive) | > 100 µM (inactive) | > 100 µM (inactive) | > 100 µM (inactive) | > 100 µM (inactive) | –
30 | COC(=O)CC(=O)OC1C[C@@H]2CCC3C(C)(C)CCC[C@]3(C)C23CC[C@@]1(C)C3 (stereo partly drawn) | – | 20.2 µM (inactive) | – | 18.8 µM (inactive) | 19.1 µM (inactive) | 19 µM (inactive) | – | 19.6 µM (inactive) | –
